Assay [1] has as its target Inhibitor of nuclear factor kappa-B kinase subunit epsilon (Homo sapiens) (UniProt Q14164). The experiment in a line: Inhibition of IKK-epsilon (unknown origin) at 0.5 uM relative to control.
The target of assay [2] is Serine/threonine-protein kinase MARK1 (Homo sapiens) (UniProt Q9P0L2). Description: Inhibition of MARK1 (unknown origin) at 0.5 uM relative to control.
The target of assay [3] is Platelet-derived growth factor receptor alpha (Homo sapiens) (UniProt P16234). The experiment in a line: Inhibition of PDGFR-alpha (unknown origin) at 0.5 uM relative to control.
Assay [4] deals with Eukaryotic translation initiation factor 2-alpha kinase 3 (Homo sapiens) (UniProt Q9NZJ5). The experiment in a line: Inhibition of PERK (unknown origin) at 0.5 uM relative to control.
The target in assay [5] is Homeodomain-interacting protein kinase 1 (Homo sapiens) (UniProt Q86Z02). Description: Inhibition of HIPK1 (unknown origin) assessed as effect on HIPK1 protein level by Western blotting analysis.
Homeodomain-interacting protein kinase 1 (Homo sapiens), sequence (Q86Z02 whole entry, looked up): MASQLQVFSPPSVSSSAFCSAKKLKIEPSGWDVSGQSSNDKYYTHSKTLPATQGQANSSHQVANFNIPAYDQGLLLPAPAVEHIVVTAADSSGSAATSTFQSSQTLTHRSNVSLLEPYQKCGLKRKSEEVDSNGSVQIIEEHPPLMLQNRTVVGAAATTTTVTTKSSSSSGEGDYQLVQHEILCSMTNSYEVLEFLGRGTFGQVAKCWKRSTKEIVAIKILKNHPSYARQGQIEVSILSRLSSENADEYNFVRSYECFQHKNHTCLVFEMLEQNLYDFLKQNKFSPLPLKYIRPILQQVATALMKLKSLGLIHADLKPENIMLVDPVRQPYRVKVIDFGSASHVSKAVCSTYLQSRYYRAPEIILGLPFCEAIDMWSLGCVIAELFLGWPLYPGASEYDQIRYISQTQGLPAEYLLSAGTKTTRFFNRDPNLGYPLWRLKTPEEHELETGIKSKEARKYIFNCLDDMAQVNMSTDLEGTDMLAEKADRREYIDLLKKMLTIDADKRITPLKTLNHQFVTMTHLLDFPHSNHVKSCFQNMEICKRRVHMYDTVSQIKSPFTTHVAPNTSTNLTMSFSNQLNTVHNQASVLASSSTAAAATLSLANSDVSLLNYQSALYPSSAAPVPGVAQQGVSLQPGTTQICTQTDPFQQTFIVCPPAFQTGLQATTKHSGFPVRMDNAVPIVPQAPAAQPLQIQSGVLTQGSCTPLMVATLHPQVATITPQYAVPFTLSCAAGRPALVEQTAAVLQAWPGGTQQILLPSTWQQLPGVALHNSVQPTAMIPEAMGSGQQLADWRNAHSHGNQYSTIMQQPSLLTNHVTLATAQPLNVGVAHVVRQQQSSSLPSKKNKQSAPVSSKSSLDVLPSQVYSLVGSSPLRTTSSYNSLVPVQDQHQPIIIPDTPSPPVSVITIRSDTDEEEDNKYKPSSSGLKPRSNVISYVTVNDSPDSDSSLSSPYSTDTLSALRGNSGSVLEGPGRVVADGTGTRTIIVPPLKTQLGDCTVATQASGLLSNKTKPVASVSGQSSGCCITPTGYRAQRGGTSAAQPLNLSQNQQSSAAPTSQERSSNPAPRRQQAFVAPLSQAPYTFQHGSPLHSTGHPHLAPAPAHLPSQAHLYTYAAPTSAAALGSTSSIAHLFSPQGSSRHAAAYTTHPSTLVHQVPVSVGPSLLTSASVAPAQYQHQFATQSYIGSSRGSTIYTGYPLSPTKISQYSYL
Assay [6] deals with Angiopoietin-1 receptor (Homo sapiens) (UniProt Q02763). The experiment in a line: Inhibition of TIE2 (unknown origin) at 0.5 uM relative to control.
Angiopoietin-1 receptor (Homo sapiens), sequence (Q02763 whole entry): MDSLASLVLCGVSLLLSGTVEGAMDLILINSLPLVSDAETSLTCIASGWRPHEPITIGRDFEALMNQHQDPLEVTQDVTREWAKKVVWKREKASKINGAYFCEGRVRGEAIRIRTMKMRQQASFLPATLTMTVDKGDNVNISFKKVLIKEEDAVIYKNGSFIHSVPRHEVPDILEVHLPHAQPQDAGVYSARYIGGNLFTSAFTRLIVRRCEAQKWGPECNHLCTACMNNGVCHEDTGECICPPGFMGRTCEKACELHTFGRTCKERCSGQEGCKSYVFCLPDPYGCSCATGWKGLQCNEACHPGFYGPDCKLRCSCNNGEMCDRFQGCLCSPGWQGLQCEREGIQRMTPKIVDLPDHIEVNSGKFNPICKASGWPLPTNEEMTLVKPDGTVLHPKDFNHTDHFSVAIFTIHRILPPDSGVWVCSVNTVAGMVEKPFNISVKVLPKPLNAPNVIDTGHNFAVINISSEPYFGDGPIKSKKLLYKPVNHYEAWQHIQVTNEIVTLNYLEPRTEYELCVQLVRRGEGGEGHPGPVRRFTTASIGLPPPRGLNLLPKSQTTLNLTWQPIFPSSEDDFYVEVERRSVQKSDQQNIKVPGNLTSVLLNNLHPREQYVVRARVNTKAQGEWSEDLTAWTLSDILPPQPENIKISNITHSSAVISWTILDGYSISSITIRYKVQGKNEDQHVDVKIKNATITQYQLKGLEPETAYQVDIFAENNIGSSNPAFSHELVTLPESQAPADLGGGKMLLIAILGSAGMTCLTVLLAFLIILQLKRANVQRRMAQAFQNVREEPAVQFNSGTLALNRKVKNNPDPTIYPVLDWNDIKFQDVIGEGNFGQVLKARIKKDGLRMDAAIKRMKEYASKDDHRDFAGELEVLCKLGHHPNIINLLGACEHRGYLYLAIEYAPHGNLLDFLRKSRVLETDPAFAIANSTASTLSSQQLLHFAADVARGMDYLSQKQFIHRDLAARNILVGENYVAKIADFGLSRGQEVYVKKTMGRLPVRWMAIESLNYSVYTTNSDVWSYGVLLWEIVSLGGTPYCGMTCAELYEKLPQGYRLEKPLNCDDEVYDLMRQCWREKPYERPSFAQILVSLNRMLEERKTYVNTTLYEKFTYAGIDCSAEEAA
In assay [7] the target is Mitogen-activated protein kinase 14 (Homo sapiens) (UniProt Q16539). The experiment in a line: Inhibition of p38alpha (unknown origin) at 0.5 uM relative to control.
Mitogen-activated protein kinase 14 (Homo sapiens), sequence (Q16539 whole entry): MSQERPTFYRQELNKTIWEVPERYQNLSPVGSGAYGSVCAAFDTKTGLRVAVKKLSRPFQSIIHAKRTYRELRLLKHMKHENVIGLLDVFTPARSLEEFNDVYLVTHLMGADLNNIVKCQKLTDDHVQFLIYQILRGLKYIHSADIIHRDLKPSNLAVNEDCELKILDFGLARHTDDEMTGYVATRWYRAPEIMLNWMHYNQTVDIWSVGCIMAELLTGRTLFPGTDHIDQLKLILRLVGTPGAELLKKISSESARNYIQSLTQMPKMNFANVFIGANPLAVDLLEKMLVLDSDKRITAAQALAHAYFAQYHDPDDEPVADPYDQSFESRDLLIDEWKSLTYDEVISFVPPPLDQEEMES
In a further assay the test system is GILM3. Description: Inhibition of cell migration in human GILM3 cells at 1 to 10 uM. The format is functional, cell-based. Particulars: dose 1-10 µM.
Assay [8] deals with Proto-oncogene tyrosine-protein kinase Src (Homo sapiens) (UniProt P12931). Description: Inhibition of SRC (unknown origin) at 0.5 uM relative to control.
Assay [9] concerns the target T1, Serine/threonine-protein kinase TAO3 (Homo sapiens) (UniProt Q9H2K8).
T1 sequence (whole entry): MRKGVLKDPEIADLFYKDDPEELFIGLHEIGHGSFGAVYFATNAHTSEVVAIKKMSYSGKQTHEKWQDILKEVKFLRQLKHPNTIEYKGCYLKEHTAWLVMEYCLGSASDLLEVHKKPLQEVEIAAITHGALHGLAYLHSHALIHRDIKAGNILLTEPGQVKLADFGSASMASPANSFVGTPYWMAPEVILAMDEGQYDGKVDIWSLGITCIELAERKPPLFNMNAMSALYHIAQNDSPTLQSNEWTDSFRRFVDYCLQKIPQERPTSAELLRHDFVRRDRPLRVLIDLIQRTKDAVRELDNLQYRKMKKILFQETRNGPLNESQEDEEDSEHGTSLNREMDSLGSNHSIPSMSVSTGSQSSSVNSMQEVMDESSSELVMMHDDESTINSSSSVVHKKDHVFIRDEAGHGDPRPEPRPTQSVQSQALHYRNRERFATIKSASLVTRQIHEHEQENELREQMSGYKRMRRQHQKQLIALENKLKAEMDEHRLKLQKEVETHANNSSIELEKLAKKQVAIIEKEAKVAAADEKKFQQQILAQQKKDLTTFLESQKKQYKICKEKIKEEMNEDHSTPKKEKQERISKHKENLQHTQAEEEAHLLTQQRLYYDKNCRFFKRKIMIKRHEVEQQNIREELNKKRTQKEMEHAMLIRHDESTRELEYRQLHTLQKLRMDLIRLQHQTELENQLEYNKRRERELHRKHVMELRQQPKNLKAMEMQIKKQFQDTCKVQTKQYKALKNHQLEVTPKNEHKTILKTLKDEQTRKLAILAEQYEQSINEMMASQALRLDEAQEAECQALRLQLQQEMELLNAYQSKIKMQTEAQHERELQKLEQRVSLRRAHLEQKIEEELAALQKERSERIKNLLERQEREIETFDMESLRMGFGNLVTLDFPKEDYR
Description: Inhibition of TAOK3 (unknown origin) at 0.5 uM relative to control.

Assay [10] deals with Mitogen-activated protein kinase kinase kinase kinase 5 (Homo sapiens) (UniProt Q9Y4K4). Description: Inhibition of MAP4K5 (unknown origin) at 0.5 uM relative to control.
Mitogen-activated protein kinase kinase kinase kinase 5 (Homo sapiens), sequence (Q9Y4K4 whole entry, looked up): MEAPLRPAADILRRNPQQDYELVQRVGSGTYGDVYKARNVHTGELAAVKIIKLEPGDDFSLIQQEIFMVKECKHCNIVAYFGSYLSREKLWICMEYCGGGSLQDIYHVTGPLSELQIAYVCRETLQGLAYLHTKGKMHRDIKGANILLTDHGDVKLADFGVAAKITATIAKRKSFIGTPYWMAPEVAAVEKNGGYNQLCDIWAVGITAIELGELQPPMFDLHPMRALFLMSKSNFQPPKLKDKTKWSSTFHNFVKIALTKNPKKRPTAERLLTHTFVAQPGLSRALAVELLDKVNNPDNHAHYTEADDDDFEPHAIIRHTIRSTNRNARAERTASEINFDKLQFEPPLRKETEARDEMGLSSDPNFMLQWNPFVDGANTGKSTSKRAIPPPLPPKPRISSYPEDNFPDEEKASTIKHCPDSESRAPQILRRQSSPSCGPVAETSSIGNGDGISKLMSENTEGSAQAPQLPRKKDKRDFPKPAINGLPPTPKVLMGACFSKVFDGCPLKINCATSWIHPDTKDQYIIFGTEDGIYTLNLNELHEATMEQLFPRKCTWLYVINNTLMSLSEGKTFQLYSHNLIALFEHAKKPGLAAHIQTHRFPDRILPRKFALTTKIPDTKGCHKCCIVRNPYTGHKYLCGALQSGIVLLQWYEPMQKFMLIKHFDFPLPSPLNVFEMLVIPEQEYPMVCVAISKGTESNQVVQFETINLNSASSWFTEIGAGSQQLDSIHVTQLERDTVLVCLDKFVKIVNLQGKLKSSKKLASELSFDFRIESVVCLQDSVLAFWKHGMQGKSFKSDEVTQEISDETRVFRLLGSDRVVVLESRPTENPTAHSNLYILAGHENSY
Assay [11] addresses Ephrin type-A receptor 1 (Homo sapiens) (UniProt P21709). Description: Inhibition of EPHA1 (unknown origin) at 0.5 uM relative to control.
Assay [12] deals with Tyrosine-protein kinase ABL2 (Homo sapiens) (UniProt P42684). Description: Inhibition of ARG (unknown origin) at 0.5 uM relative to control.
Assay [13] concerns the target Ephrin type-B receptor 3 (Homo sapiens) (UniProt P54753). The experiment in a line: Inhibition of EPHB3 (unknown origin) at 0.5 uM relative to control.
Assay [14] concerns the target Non-receptor tyrosine-protein kinase TNK1 (Homo sapiens) (UniProt Q13470). Description: Inhibition of TNK1 (unknown origin) at 0.5 uM relative to control.
Assay [15] concerns the target Dual specificity mitogen-activated protein kinase kinase 4 (Homo sapiens) (UniProt P45985). Description: Inhibition of MAP2K4 (unknown origin) at 0.5 uM relative to control.
The target of assay [16] is Serine/threonine-protein kinase PLK4 (Homo sapiens) (UniProt O00444). The experiment in a line: Inhibition of PLK4 (unknown origin) at 0.5 uM relative to control.
Assay [17] deals with Mitogen-activated protein kinase kinase kinase 9 (Homo sapiens) (UniProt P80192). Description: Inhibition of MLK1 (unknown origin) at 0.5 uM relative to control.
Assay [18] deals with Serine/threonine-protein kinase B-raf (Homo sapiens) (UniProt P15056). Description: Inhibition of BRAF (unknown origin) at 0.5 uM relative to control.
Assay [19] addresses SRSF protein kinase 3 (Homo sapiens) (UniProt Q9UPE1). The experiment in a line: Inhibition of MSSK1 (unknown origin) at 0.5 uM relative to control.
Assay [20] deals with Ephrin type-A receptor 2 (Homo sapiens) (UniProt P29317). The experiment in a line: Inhibition of EPHA2 (unknown origin) at 0.5 uM relative to control.
The target of assay [21] is Serine/threonine-protein kinase PLK2 (Homo sapiens) (UniProt Q9NYY3). The experiment in a line: Inhibition of PLK2 (unknown origin) at 0.5 uM relative to control.
Assay [22] has as its target Tyrosine-protein kinase JAK1 (Homo sapiens) (UniProt P23458). Description: Inhibition of JAK1 (unknown origin) at 0.5 uM relative to control.
Assay [23] deals with Mitogen-activated protein kinase kinase kinase 10 (Homo sapiens) (UniProt Q02779). The experiment in a line: Inhibition of MLK2 (unknown origin) at 0.5 uM relative to control.
Assay [24] has as its target Mitogen-activated protein kinase 11 (Homo sapiens) (UniProt Q15759). Description: Inhibition of p38beta (unknown origin) at 0.5 uM relative to control.
The species named for another assay is Homo sapiens. The experiment in a line: Inhibition of LYNA (unknown origin) at 0.5 uM relative to control.
For assay [25], the target named is MAP kinase-interacting serine/threonine-protein kinase 2 (Homo sapiens) (UniProt Q9HBH9). Description: Inhibition of MNK2 (unknown origin) at 0.5 uM relative to control.
MAP kinase-interacting serine/threonine-protein kinase 2 (Homo sapiens), sequence (Q9HBH9 whole entry, looked up): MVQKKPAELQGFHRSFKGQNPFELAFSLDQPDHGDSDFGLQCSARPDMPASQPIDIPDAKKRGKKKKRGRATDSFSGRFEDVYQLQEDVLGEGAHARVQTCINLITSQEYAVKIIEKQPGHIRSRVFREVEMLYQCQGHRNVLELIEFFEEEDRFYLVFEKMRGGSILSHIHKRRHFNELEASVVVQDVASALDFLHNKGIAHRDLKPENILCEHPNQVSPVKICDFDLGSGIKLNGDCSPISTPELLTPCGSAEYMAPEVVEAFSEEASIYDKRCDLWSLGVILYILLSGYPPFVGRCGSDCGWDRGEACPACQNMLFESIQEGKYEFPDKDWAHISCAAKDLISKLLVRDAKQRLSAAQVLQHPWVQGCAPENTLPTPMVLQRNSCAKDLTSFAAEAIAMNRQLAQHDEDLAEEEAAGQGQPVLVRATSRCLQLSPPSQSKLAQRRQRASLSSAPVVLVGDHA
Assay [26] concerns the target Tyrosine-protein kinase Lyn (Homo sapiens) (UniProt P07948). Description: Inhibition of LYNB (unknown origin) at 0.5 uM relative to control.
In assay [27] the target is Serine/threonine-protein kinase TAO2 (Homo sapiens) (UniProt Q9UL54). The experiment in a line: Inhibition of TAOK2 (unknown origin) at 0.5 uM relative to control.

The values that follow come from ChEMBL document CHEMBL4806968, “Hipk inhibitors and methods of use thereof” (2020).

Molecules are shown by their SMILES. Activity calls are given as the source filed them. The rule behind the calls is not given here.

Mitogen-activated protein kinase 11 (Homo sapiens), sequence (Q15759 whole entry): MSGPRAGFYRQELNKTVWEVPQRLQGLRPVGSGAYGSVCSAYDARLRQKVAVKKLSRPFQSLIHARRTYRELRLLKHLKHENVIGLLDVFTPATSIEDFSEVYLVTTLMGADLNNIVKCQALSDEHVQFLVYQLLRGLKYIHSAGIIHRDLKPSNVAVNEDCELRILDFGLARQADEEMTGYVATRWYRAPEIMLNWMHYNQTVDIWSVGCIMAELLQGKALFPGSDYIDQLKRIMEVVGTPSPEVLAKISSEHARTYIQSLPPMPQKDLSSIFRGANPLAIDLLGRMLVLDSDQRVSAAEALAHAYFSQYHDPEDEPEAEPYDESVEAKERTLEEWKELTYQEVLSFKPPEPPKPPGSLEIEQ
SRSF protein kinase 3 (Homo sapiens), sequence (Q9UPE1 whole entry): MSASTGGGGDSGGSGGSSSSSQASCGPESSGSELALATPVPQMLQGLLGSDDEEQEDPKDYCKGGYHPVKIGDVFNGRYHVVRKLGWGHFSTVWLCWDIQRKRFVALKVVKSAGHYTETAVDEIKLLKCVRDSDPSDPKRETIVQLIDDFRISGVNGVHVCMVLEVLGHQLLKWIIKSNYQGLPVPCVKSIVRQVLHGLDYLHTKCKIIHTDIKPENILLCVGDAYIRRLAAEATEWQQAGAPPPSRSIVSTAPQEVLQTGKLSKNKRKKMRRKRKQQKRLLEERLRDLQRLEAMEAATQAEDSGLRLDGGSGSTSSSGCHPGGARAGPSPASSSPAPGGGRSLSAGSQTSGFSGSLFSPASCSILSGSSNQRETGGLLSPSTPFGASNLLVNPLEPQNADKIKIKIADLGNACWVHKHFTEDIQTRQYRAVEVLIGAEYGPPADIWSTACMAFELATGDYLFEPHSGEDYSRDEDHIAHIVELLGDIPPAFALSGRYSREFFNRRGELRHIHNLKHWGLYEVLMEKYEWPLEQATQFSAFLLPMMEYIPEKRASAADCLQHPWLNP

Turning to `CNC(=O)c1cc(Oc2ccc(NC(=O)c3nc(SC)n(CCN(C)C)c3-c3ccc(F)cc3)cc2)ccn1`, the inhibition in assay [1] is 34%; in [2] it was 44%; in [3], 44%; in [4], 64%.
For `CNC(=O)c1cc(Oc2ccc(NC(=O)c3nc(S(C)(=O)=O)sc3-c3ccc(F)cc3)cc2)ccn1`, in assay [5], the result was inactive. Besides, the inhibition in assay [6] turned out to be 53%; in [7], 15%. For the same compound, in the assay with GILM3, the inhibition result is “Active”.
For the compound `CNC(=O)c1cc(Oc2ccc(NC(=O)c3nc(SC)oc3-c3ccc(F)cc3)cc2F)ccn1`, the inhibition came out at 40% in [8], 40% in assay [9] and 63% in assay [7].
For `CNC(=O)c1cc(Oc2ccc(NC(=O)c3nc(C(F)(F)F)sc3-c3ccc(F)cc3)cc2)ccn1`, the inhibition was found to be 55% in assay [10], 37% in [11], 32% in [12] and 23% in [13].
`CSc1nc(C(=O)Nc2ccc(Oc3cc4cnn(C)c4cc3Br)cc2)c(-c2ccc(F)cc2)o1`: the inhibition worked out at 23% in assay [14]; 16% in assay [15]; 14% in assay [16]; 28% in assay [17]; 19% in assay [18]; 14% in [19]. The inhibition in assay [6] was found to be 25%; in assay [11], 37%; in assay [20], 25%; in assay [7] it was 25%; in assay [21], 19%; in assay [22], 21%. Moreover, the inhibition in assay [23] and in assay [24] was 21% throughout.
As for `CNC(=O)c1cc(Oc2ccc(NC(=O)c3nc(SC)[nH]c3-c3ccc(F)cc3)cc2)ccn1`, the inhibition was 94% in assay [10]; 84% in the assay filed under Homo sapiens; 88% in [6]; 90% in [25]; 93% in assay [26]. In addition, the outcome in [5] was inactive. In the assay on GILM3, the inhibition result is “Active”.
In the case of `CNC(=O)c1cc(Oc2ccc(NC(=O)c3n[nH]nc3-c3ccc(F)cc3)cc2)ccn1`, the inhibition came to 28% in assay [18], 25% in [19] and 32% in assay [25].
For the compound `CNC(=O)c1cc(Oc2ccc(NC(=O)c3nc(NC)sc3-c3ccc(F)cc3)cc2)ccn1`, the inhibition in assay [27] is 44%; in assay [9], 55%; in [6], 43%.
On to `CNC(=O)c1cc(Oc2ccc(NC(=O)c3nc(SC)oc3-c3ccc(F)cc3)cc2)ccn1`, for which the inhibition in assay [9] came out at 39%; in assay [7], 65%; in [12], 40%; in assay [24], 40%. For the same compound, the outcome in assay [5] was inactive. In addition, in the assay on GILM3, the inhibition entry was “Active”.
